In paper PMC7770649 (iScience, 2020):

Target: TPI (triosephosphate isomerase), recombinant
Experiment: isothermal titration calorimetry
Assay type: binding
Conditions: 100 μM TPI, 1 mM palmitic amide; DMSO control

With `CCCCCCCCCCCCCCCC(N)=O` [palmitic amide] as the compound, how does the Kd read?
Its Kd is 4.89 ± 1.23 µM.
